Data set [1] relates to rabbit isolated heart. Nature of the data set: Inotropic effect on rabbit isolated heart (Langendorff) after anoxia. The note with it: Oryctolagus cuniculus, 10 min, dose 10^-5 gl^-1, 10 minutes after interruption of the anoxic period, increase against controls. Here is the method: Rabbit hearts isolated by the Langendorff method were perfused with oxygenized Ringer solution at 38.2° C. The isometric contractions, electrogardiogram and coronary flow were recorded using a "Battaglia-Rangoni" polygraph. By removing the oxygen from the perfusion fluid, metabolic damage was induced in the cardiac muscle, up to an 80% reduction in the cardiac contractile force.
Under these conditions of prolonged anoxia the aerobic glycolysis of the myocardium is slowed down, accompanied by the storage of acid catabolites due to both the accumulation of pyruvic acid and its conversion to lactic acid which cannot be utilized because of the depression of pyridine enzymes, such as LDH (lactodehydrogenase). This has repercussions on the anaerobic glycolysis affecting an ever increasing number of enzymes, accompanied by a progressive and increasingly critical exhaustion of the myocardium. Thus a whole series of cardiac muscle fatigue levels occurs which can be observed by the behavior of the examined parameters, namely the contractile force, coronary flow, heart rate and cardiac rhythm. As soon as the contractile force was reduced by 80%, the perfusion fluid was once again oxygenized either without adding other compounds (controls) or with the addition of the compounds under examination.
In the Table there are shown the percentage value of increase against the controls.

For data set [2], the system named is mice. In words: Adrenaline-antagonizing effect in mice. The data set is classed as in vivo, male Albino Swiss mice. Conditions: Mus musculus, ip, 30 min before adrenaline, mortality checked for 36 hours, read-out: Antiadrenaline activity, % mortality reduction; for responders at 300 mg/kg: dose 300 mg kg^-1 i.p.; for responders at 70 mg/kg: dose 70 mg kg^-1 i.p.; for responders at 100 mg/kg: dose 100 mg kg^-1 i.p.; for responders at 50 mg/kg: dose 50 mg kg^-1 i.p. Here is the method: (d) Adrenaline-antagonizing effect
Groups of ten male Albino Swiss mice, weighing 12-22 g, were intraperitoneally administered either with the esters of the present invention or with saline (control) and, after 30 minutes, with adrenaline (treated) at a dose capable of bringing about death to 100% of the control animals due to ventricular fibrillation and cardiac lesions ensuing from increase in frequency, pressure and oxygen uptake from the myocardium.
Mortality was checked for 36 hours and the effect of the compounds expressed as percentage of surviving animals, is shown in the Table.

In data set [3] the test system is mice. In words: Antiarrhythmic (antifibrillatory) effect, aconitine-induced arrhythmia in mice. The data set is classed as in vivo. Conditions: Mus musculus, iv, read-out: Antifibrillatory activity, % reduction. As to the method:
(c) Antiarrhythmic effect
In order to evaluate the antiarrhythmic activity of the carnitine derivatives of this invention studied with in vivo tests in addition to and in comparison with the currently employed in vitro tests, the method disclosed by Nwangwu et al. (Arch. Int. Pharmacodyn., 1977, 229, 219) was used.
According to this method an aconitine solution is injected into the caudal vein of mice and the onset time of arrhythmia and tachycardia after 2 to 60 minutes from administration of the compounds under examination is recorded.
The antiarrhythmic activity calculated from the increase in the latency time of the onset of the arrhythmias of the treated animals in comparison with the controls, is illustrated in the Table.

Data set [4] is described as follows: Acute toxicity (LD50) in mice. The note with it: mouse, in vivo, ip. From the text:
(a) Acute toxicity (LD50)
Acute toxicity was investigated by using the method disclosed by Weil C. S. in "Tables for convenient calculation of median-effective dose (LD50 or ED50) and instructions in their use", Biometrics, 249-253, 1952.
The tolerance of the compounds under examination was investigated in mice after administration by the intraperitoneal or oral route. […] (see the Table).

Compound `CCOC(C)C(=O)OC(CC(=O)OC(C)C)C[N+](C)(C)C` (centres unmarked) [R = 2-ethoxypropionyl; R' = isopropyl] returned an activation at 0.01 µg/mL in data set [1] of 50%. Also, in data set [2], the responders at 300 mg/kg turned out to be 50%. Besides, in data set [3], the inhibition in vivo at 50 mg/kg came out at 70%. Also, the 50% lethal dose (LD50) in data set [4] came to 1200 mg/kg.
Take `CCOC(=O)CC(C[N+](C)(C)C)OC(=O)COC` (centres unmarked) [R = methoxyacetyl; R' = ethyl]: in data set [1], the activation at 0.01 µg/mL was determined as 58%. Further, the responders at 70 mg/kg in data set [2] worked out at 70%. Besides, the inhibition in vivo at 50 mg/kg in data set [3] was determined as 70%. In data set [4], this compound showed a median lethal dose (LD50) of 550 mg/kg.
Take `CCCCOC(=O)CC(C[N+](C)(C)C)OC(=O)COCC` (centres unmarked) [R = ethoxyacetyl; R' = butyl]: in data set [1], the activation at 0.01 µg/mL came out at 58%. Also, the responders at 100 mg/kg in data set [2] came to 75%. Further, the inhibition in vivo at 40 mg/kg in data set [3] came to 75%. In data set [4], this compound had an LD50 of 600 mg/kg.
`CCCCOC(=O)CC(C[N+](C)(C)C)OC(=O)COC` (centres unmarked) [R = methoxyacetyl; R' = butyl] returned an activation at 0.01 µg/mL in data set [1] of 55%. Besides, the responders at 100 mg/kg in data set [2] came to 70%. The inhibition in vivo at 40 mg/kg in data set [3] was 75%. The compound further displayed an LD50 in data set [4] of 550 mg/kg.
Compound `CCOCC(=O)OC(CC(=O)OC(C)C)C[N+](C)(C)C` (centres unmarked) [R = ethoxyacetyl; R' = isopropyl] gave an activation at 0.01 µg/mL in data set [1] of 72%. Moreover, in data set [2], the responders at 100 mg/kg came out at 60%. The inhibition in vivo at 50 mg/kg in data set [3] is 70%. In data set [4], this compound showed a median lethal dose (LD50) of 700 mg/kg.
For `CCOCC(=O)OC(CC(=O)OCC)C[N+](C)(C)C` (centres unmarked) [R = ethoxyacetyl; R' = ethyl], the activation at 0.01 µg/mL in data set [1] is 68%. The responders at 50 mg/kg in data set [2] was 50%. Also, in data set [3], the inhibition in vivo at 35 mg/kg was found to be 65%. Moreover, the LD50 in data set [4] was found to be 600 mg/kg.
Turning to `COCC(=O)OC(CC(=O)OC(C)C)C[N+](C)(C)C` (centres unmarked) [R = methoxyacetyl; R' = isopropyl], the activation at 0.01 µg/mL in data set [1] was determined as 55%. The responders at 50 mg/kg in data set [2] came to 75%. Further, the inhibition in vivo at 50 mg/kg in data set [3] was determined as 80%. For the same compound, in data set [4], the LD50 was found to be 800 mg/kg.
With `CCCOC(=O)CC(C[N+](C)(C)C)OC(=O)COCC` (centres unmarked) [R = ethoxyacetyl; R' = propyl], the activation at 0.01 µg/mL in data set [1] came to 49%. For the same compound, the responders at 100 mg/kg in data set [2] came out at 75%. Also, the inhibition in vivo at 50 mg/kg in data set [3] was determined as 75%. The median lethal dose (LD50) in data set [4] stood at 620 mg/kg.
In data set [1], `CCOCC(=O)OC(CC(=O)OC)C[N+](C)(C)C` (centres unmarked) [R = ethoxyacetyl; R' = methyl] came in with an activation at 0.01 µg/mL of 55%. Moreover, in data set [2], the responders at 300 mg/kg turned out to be 75%. Moreover, the inhibition in vivo at 150 mg/kg in data set [3] came out at 90%. In addition, the LD50 in data set [4] came out at 1100 mg/kg.
The compound `CCOCC(=O)OC(CC(=O)OCC(C)C)C[N+](C)(C)C` (centres unmarked) [R = ethoxyacetyl; R' = isobutyl, ethoxyacetyl carnitine isobutyl ester] registered an activation at 0.01 µg/mL in data set [1] of 70%. Also, the responders at 70 mg/kg in data set [2] was found to be 50%. Moreover, the inhibition in vivo at 10 mg/kg in data set [3] was found to be 70%. In data set [4], this compound registered a 50% lethal dose (LD50) of 750 mg/kg.
Regarding `COC(C)C(=O)OC(CC(=O)OC(C)C)C[N+](C)(C)C` (centres unmarked) [R = 2-methoxypropionyl; R' = isopropyl, 2-methoxy propionyl carnitine isopropyl ester], the activation at 0.01 µg/mL in data set [1] came out at 70%. In data set [2], the responders at 100 mg/kg was determined as 58%. In addition, the inhibition in vivo at 50 mg/kg in data set [3] stood at 68%. Besides, in data set [4], the LD50 came to 850 mg/kg.
`COCC(=O)OC(CC(=O)OCC(C)C)C[N+](C)(C)C` (centres unmarked) [R = methoxyacetyl; R' = isobutyl, methoxyacetyl carnitine isobutyl ester] showed an activation at 0.01 µg/mL in data set [1] of 79%. The responders at 300 mg/kg in data set [2] stood at 60%. In addition, the inhibition in vivo at 75 mg/kg in data set [3] is 85%. In data set [4], this compound returned an LD50 of 690 mg/kg.
`COCC(=O)OC(CC(=O)OC)C[N+](C)(C)C` (centres unmarked) [R = methoxyacetyl; R' = methyl] came in with an activation at 0.01 µg/mL in data set [1] of 72%. For the same compound, the responders at 450 mg/kg in data set [2] (dose 450 mg kg^-1 i.p.) amounted to 70%. Also, the inhibition in vivo at 300 mg/kg in data set [3] worked out at 75%. Further, the LD50 in data set [4] turned out to be 1200 mg/kg.
The compound `CCCOC(=O)CC(C[N+](C)(C)C)OC(=O)COC` (centres unmarked) [R = methoxyacetyl; R' = propyl] came in with an activation at 0.01 µg/mL in data set [1] of 78%. Also, in data set [2], the responders at 50 mg/kg amounted to 75%. Besides, the inhibition in vivo at 50 mg/kg in data set [3] is 100%. In data set [4], this compound showed a 50% lethal dose (LD50) of 650 mg/kg.

For orientation: LD50 means the dose at which mortality reaches 50%.

For the origin of these results see US4551477A, “Esters of alkoxy-acylderivatives of carnitine and pharmaceutical compositions containing same” (Sigma-Tau Industrie Farmaceutiche Riunite S.P.A., priority 1974, dated 1985).
